# Test results from ChEMBL document CHEMBL5329212, “In situ click chemistry-based discovery of 1,2,3-triazole-derived diarylpyrimidines as novel HIV-1 NNRTIs by exploiting the tolerant region I in binding pocket” (Bioorg Med Chem, 2023).
# pEC50, pIC50: −log10 of the molar value.
# What was measured:
# [1] = target: Human immunodeficiency virus type 1 reverse transcriptase (Human immunodeficiency virus 1) (UniProt Q72547); assay: Inhibition of HIV-1 reverse transcriptase at 0.267 uM incubated for 1 hrs in presence of biotin-labeled dNTPs by ELISA assay relative to control
# [2] = Cytotoxicity against human MT4 cells assessed as reduction in cell viability measured after 5 days by MTT assay; assay type: toxicity, cell-based; details: time 5 day
# [3] = system: Human immunodeficiency virus 1; assay: Antiviral activity against HIV-1 harboring RT Y188L mutant infected in human MT4 cells assessed as protection against virus-induced cytopathic effect measured after 5 days by MTT assay; assay type: functional, organism-based; details: Human immunodeficiency virus 1, MT4, 120 h
# [4] = system: Human immunodeficiency virus 1; assay: Antiviral activity against wild type HIV-1 IIIB infected in human MT4 cells assessed as protection against virus-induced cytopathic effect measured after 5 days by MTT assay; assay type: functional, organism-based; details: Human immunodeficiency virus 1, IIIB, MT4, 120 h
# [5] = target: Human immunodeficiency virus type 1 reverse transcriptase (Human immunodeficiency virus 1, UniProt Q72547); assay: Inhibition of HIV-1 reverse transcriptase incubated for 1 hrs in presence of biotin-labeled dNTPs by ELISA assay
# [6] = system: Human immunodeficiency virus 1; assay: Antiviral activity against HIV-1 harboring RT K103N mutant infected in human MT4 cells assessed as protection against virus-induced cytopathic effect measured after 5 days by MTT assay; assay type: functional, organism-based; details: Human immunodeficiency virus 1, MT4, 120 h
# [7] = system: Human immunodeficiency virus 1; assay: Antiviral activity against HIV-1 harboring RT F227L/V106A double mutant infected in human MT4 cells assessed as protection against virus-induced cytopathic effect measured after 5 days by MTT assay; assay type: functional, organism-based; details: Human immunodeficiency virus 1, MT4, 120 h
# [8] = system: Human immunodeficiency virus 1; assay: Antiviral activity against HIV-1 harboring RT E138K mutant infected in human MT4 cells assessed as protection against virus-induced cytopathic effect measured after 5 days by MTT assay; assay type: functional, organism-based; details: Human immunodeficiency virus 1, MT4, 120 h
# [9] = system: Human immunodeficiency virus 1; assay: Antiviral activity against HIV-1 harboring RT L100I mutant infected in human MT4 cells assessed as protection against virus-induced cytopathic effect measured after 5 days by MTT assay; assay type: functional, organism-based; details: Human immunodeficiency virus 1, MT4, 120 h
# [10] = system: Human immunodeficiency virus 1; assay: Antiviral activity against HIV-1 harboring RT Y181C mutant infected in human MT4 cells assessed as protection against virus-induced cytopathic effect measured after 5 days by MTT assay; assay type: functional, organism-based; details: Human immunodeficiency virus 1, MT4, 120 h
# [11] = system: Human immunodeficiency virus 1; assay: Antiviral activity against HIV-1 harboring RT RES056 mutant infected in human MT4 cells assessed as protection against virus-induced cytopathic effect measured after 5 days by MTT assay; assay type: functional, organism-based; details: Human immunodeficiency virus 1, MT4, 120 h
SMILES,inhibition [1] [%],CC50 at 120 h [2] [µM],pEC50 [3],pEC50 [4],pIC50 [5],pEC50 [6],pEC50 [7],pEC50 [8],pEC50 [9],pEC50 [10],pEC50 [11]
Cc1cc(C#N)cc(C)c1Oc1nc(Nc2ccc(-c3cn(Cc4ccc(B(O)O)cc4)nn3)cc2)nc2ccsc12,50.8,13.4,5.50,6.80,6.38,6.39,5.39,6.19,5.61,5.31,≤ 5.26
Cc1cc(C#N)cc(C)c1Oc1nc(Nc2ccc(-c3cn(-c4ccc(C(N)=O)cc4)nn3)cc2)nc2ccsc12,66.9,164,< 3.79,6.82,6.10,6.60,< 3.79,6.04,< 3.79,< 3.79,< 3.79
Cc1cc(C#N)cc(C)c1Oc1nc(Nc2ccc(-c3cn(Cc4ccc(C(N)=O)cc4)nn3)cc2)nc2ccsc12,39.5,> 218,4.92,7.52,6.60,7.10,5.15,6.82,5.83,5.16,< 3.66
Cc1cc(C#N)cc(C)c1Oc1nc(Nc2ccc(-c3cn(CC(=O)Nc4ccc(C(F)(F)F)cc4)nn3)cc2)nc2ccsc12,43.8,> 195,4.76,5.69,5.56,5.55,4.73,5.18,5.60,5.26,4.63
CCOC(=O)Cn1cc(-c2ccc(Nc3nc(Oc4c(C)cc(C#N)cc4C)c4sccc4n3)cc2)nn1,31.2,–,–,–,–,–,–,–,–,–,–
Cc1cc(C#N)cc(C)c1Oc1nc(Nc2ccc(-c3cn(Cc4ccc(S(N)(=O)=O)cc4)nn3)cc2)nc2ccsc12,46.3,> 205,5.49,7.52,6.72,7.40,5.44,7.30,6.00,5.58,< 3.69
Cc1cc(C#N)cc(C)c1Oc1nc(Nc2ccc(-c3cn(-c4ccc(CO)cc4)nn3)cc2)nc2ccsc12,34.7,–,–,–,–,–,–,–,–,–,–
Cc1cc(C#N)cc(C)c1Oc1nc(Nc2ccc(-c3cn(CC(=O)N4CCCC4)nn3)cc2)nc2ccsc12,12.8,–,–,–,–,–,–,–,–,–,–
Cc1cc(C#N)cc(C)c1Oc1nc(Nc2ccc(-c3cn(-c4ccc(C(=O)O)cc4Cl)nn3)cc2)nc2ccsc12,17.3,–,–,–,–,–,–,–,–,–,–
Cc1cc(C#N)cc(C)c1Oc1nc(Nc2ccc(-c3cn(CC(=O)Nc4ccc(S(C)(=O)=O)cc4)nn3)cc2)nc2ccsc12,23.4,–,–,–,–,–,–,–,–,–,–
Cc1cc(C#N)cc(C)c1Oc1nc(Nc2ccc(-c3cn(Cc4ccc(C#N)cc4)nn3)cc2)nc2ccsc12,36.9,–,–,–,–,–,–,–,–,–,–
COC(=O)c1cccc(-n2cc(-c3ccc(Nc4nc(Oc5c(C)cc(C#N)cc5C)c5sccc5n4)cc3)nn2)c1,42.4,> 218,4.23,5.90,6.19,5.76,4.63,5.30,5.13,4.62,≤ 3.81
Cc1cc(C#N)cc(C)c1Oc1nc(Nc2ccc(-c3cn(-c4ccc5c(c4)OCO5)nn3)cc2)nc2ccsc12,50,> 223,3.78,5.74,5.98,5.70,4.11,5.14,4.96,4.16,< 3.65
COC(=O)CCCn1cc(-c2ccc(Nc3nc(Oc4c(C)cc(C#N)cc4C)c4sccc4n3)cc2)nn1,35.3,–,–,–,–,–,–,–,–,–,–
COC(=O)Cn1cc(-c2ccc(Nc3nc(Oc4c(C)cc(C#N)cc4C)c4sccc4n3)cc2)nn1,35.7,–,–,–,–,–,–,–,–,–,–

# Continued, in another order:
inhibition [1] [%],SMILES,CC50 at 120 h [2] [µM],pEC50 [3],pEC50 [4],pIC50 [5],pEC50 [6],pEC50 [7],pEC50 [8],pEC50 [9],pEC50 [10],pEC50 [11]
0.4,COc1cccc(Cn2cc(-c3ccc(Nc4nc(Oc5c(C)cc(C#N)cc5C)c5sccc5n4)cc3)nn2)c1,–,–,–,–,–,–,–,–,–,–
1.9,Cc1cc(C#N)cc(C)c1Oc1nc(Nc2ccc(-c3cn(CCc4ccsc4)nn3)cc2)nc2ccsc12,–,–,–,–,–,–,–,–,–,–
24.9,Cc1cc(C#N)cc(C)c1Oc1nc(Nc2ccc(-c3cn(C[S+]([O-])c4ccccc4)nn3)cc2)nc2ccsc12 (centres undefined),–,–,–,–,–,–,–,–,–,–
28.4,Cc1cc(C#N)cc(C)c1Oc1nc(Nc2ccc(-c3cn(Cc4cccc(Cl)c4)nn3)cc2)nc2ccsc12,–,–,–,–,–,–,–,–,–,–
1.5,Cc1cc(C#N)cc(C)c1Oc1nc(Nc2ccc(-c3cn(Cc4ccc5ccccc5c4)nn3)cc2)nc2ccsc12,–,–,–,–,–,–,–,–,–,–
33.3,Cc1ccccc1Cn1cc(-c2ccc(Nc3nc(Oc4c(C)cc(C#N)cc4C)c4sccc4n3)cc2)nn1,–,–,–,–,–,–,–,–,–,–
23.1,Cc1cc(C#N)cc(C)c1Oc1nc(Nc2ccc(-c3cn(Cc4ccccc4Cl)nn3)cc2)nc2ccsc12,–,–,–,–,–,–,–,–,–,–
0.9,Cc1cc(C#N)cc(C)c1Oc1nc(Nc2ccc(-c3cn(Cc4cccc([N+](=O)[O-])c4)nn3)cc2)nc2ccsc12,–,–,–,–,–,–,–,–,–,–
27.1,Cc1cc(C#N)cc(C)c1Oc1nc(Nc2ccc(-c3cn(CCc4ccccc4)nn3)cc2)nc2ccsc12,–,–,–,–,–,–,–,–,–,–
